Test results taken from patent US7585896B2, “Composition for the prevention and treatment of kidney dysfunctions and diseases” (Sigma-Tau Industrie Farmaceutiche Riunite S.p.A., priority 1999, dated 2009).

Key:
[1] = tested on: glycerol-induced renal insufficiency in male Sprague-Dawley rats; experiment: Protective activity against glycerol-induced renal insufficiency; format: in vivo; conditions: for Urea (plasma): glycerol-injected rats, 24 h after injection; for effect on the elevated plasma urea and creatinine concentrations: glycerol-induced acute renal insufficiency, oral or intraperitoneal, result in words
[2] = tested on: ochratoxin A-induced renal toxic lesions in Wistar rats; experiment: Protective activity against renal abnormalities induced by ochratoxin A; format: in vivo; conditions: for ALP (alkaline phosphatase) / GGT (gamma-glutamyl transferase) / NAG (N-acetyl-β-D-glucosaminidase): 24-hour urine, 300 mg/kg (of each drug) oral for 10 days with ochratoxin A; for effect on enzymuria induced by ochratoxin and serum creatinine levels: ochratoxin-intoxicated rats, result in words
Description: In experimental animals, particularly rats, it is possible to reproduce tubulo-interstitial nephropathy similar to that encountered in man and known as Balkans Endemic Nephropathy (BEN) by means of the administration of a mycotoxin produced by Aspergillus ochraceus which is present as a contaminant in various foodstuffs and is known as ochratoxin A (Kniper-Goodman T., Scott P., Biomed. Environ. Sci., 2, 179, 1989).
The administration of small amounts of this toxin causes a series of renal abnormalities in the rat with a reduction in glomerular filtration and lesions at the level of the proximal tubule to such an extent as to cause renal atrophy.
In this test a batch of Wistar rats with a mean body weight of 200 g was divided into various groups, one of which served as a control group, while another was administered […] of ochratoxin (Sigma Chemical, St. Louis, Mo. U.S.A.) by gastric probe every 48 hours for a period of ten days. The remaining groups, in addition to ochratoxin, also received oral administrations of 300 mg/ks of acetyl L-carnitine or 300 mg/kg of propionyl L-carnitine or a combination of the two carnitines for the entire 10-day treatment period.
At the end of treatment, the animals were placed in metabolic cages and 24-hour urine was submitted to spectrophotometric evaluation of the enzymes alkaline phosphatase (ALP), gamma-glutamyl transferase (GGT) and N-acetyl-β-D-glucosaminidase (NAG) as indicators of renal damage.
Serum creatinine concentrations were also measured.

isolated perfused kidney = experiment: Protective activity against lithium-induced nephrotoxicity in the isolated perfused kidney (histamine release); design: species or system Wistar rats; conditions: for Percentage changes vs controls in histamine released: lithium 6 mEq/L after 20 min perfusion of carnitine 200 mM/L; for effect on histamine release induced by the renal toxic action of lithium: isolated perfused kidney, result in words
Description: This test was used to assess the protective activity of the combination of acetyl L-carnitine plus propionyl L-carnitine against the well-known nephrotoxic activity of lithium. Lithium presents a particular tropism at the renal tubule level and can cause tubular necrosis.
In this test Wistar rates with a mean body weight of 400 g were anaesthetised and nephrectomised. The excised kidneys were perfused according to the technique described by Shureck (Shureck H. J., Pflügers Arch., 354, 1975) as modified by Maach (Maach T., Kidney Int., 30, 142, 1986; Maach T., Ann. J. Physiol., 238, 1980).
Immediately after isolation of the kidney, the renal artery and outflow vein were catheterised and the resulting preparation was placed in a chamber containing a Krebs solution heated to 37° C. The oxygenised Krebs solution was pumped into the system by means of a pulsatile pump at a rate of 0.8 ml/min/g.
Lithium was administered via the perfusion pump at a dose of 6 mEq/L after perfusion during the previous 20 minutes of a solution containing acetyl L-carnitine or propionyl L-carnitine (200 mM/L) or a combination of the two compounds.
After the lithium infusion, the venous perfusion fluid was collected at five-minute intervals for fifteen minutes and its histamine content was measured with a fluorometric method (Hakanson R., Anal. Biochem., 47, 356, 1972). Histamine release is considered a marker of the severity of tubular damage (Bertelli A., Drugs Exptl. Clin Res., 7, 53, 1981).

[3] = 5 minutes post-lithium-infusion
[4] = 10 minutes post-lithium-infusion
[5] = 15 minutes post-lithium-infusion

| SMILES | Urea (plasma) ([1]; 100 mg/kg (of each drug) i.p.) [mg/100 ml] | Urea (plasma) ([1]; 100 mg/kg (of each drug) oral) [mg/100 ml] | Urea (plasma) ([1]; 500 mg/kg (of each drug) i.p.) [mg/100 ml] | Urea (plasma) ([1]; 500 mg/kg (of each drug) oral) [mg/100 ml] | effect on the elevated plasma urea and creatinine concentrations [1] | ALP (alkaline phosphatase) [2] [U/I] | GGT (gamma-glutamyl transferase) [2] [U/I] | NAG (N-acetyl-β-D-glucosaminidase) [2] [U/I] | effect on enzymuria induced by ochratoxin and serum creatinine levels [2] | Percentage changes vs controls in histamine released (isolated perfused kidney; [3]) [%] | Percentage changes vs controls in histamine released (isolated perfused kidney; [4]) [%] | Percentage changes vs controls in histamine released (isolated perfused kidney; [5]) [%] | effect on histamine release induced by the renal toxic action of lithium (isolated perfused kidney) |
| --- | --- | --- | --- | --- | --- | --- | --- | --- | --- | --- | --- | --- | --- |
| CC(=O)O[C@H](CC(=O)[O-])C[N+](C)(C)C [ACL, Acetyl L-carnitine] | 104.7 ± 12.4 | 110.9 ± 21.6 | 98.5 ± 10.6 | 105.4 ± 29.4 | only slight changes | 8.8 ± 1.1 | 17.2 ± 1.9 | 48.8 ± 5.1 | reduced | 55.8 ± 6.1 | 36.8 ± 3.1 | 12.5 ± 1.5 | reduced |
| CCC(=O)O[C@H](CC(=O)[O-])C[N+](C)(C)C [PC, Propionyl L-carnitine] | 100.5 ± 9.8 | 107.4 ± 30.2 | 80.2 ± 6.6 | 90.2 ± 31.4 | only slight changes | 7.5 ± 0.9 | 16.5 ± 2.2 | 44.2 ± 4.5 | reduced | 45.8 ± 4.5 | 30.4 ± 2.9 | 10.4 ± 0.9 | reduced |
